# US11033527B2, “Non-hormonal treatment of the genitourinary syndrome of menopause” (IMMUGEN PHARMA LLC, priority 2018, dated 2021)
# Where “and” joins values, the source holds several entries; their conditions need not be identical. Equal values may be shown once.
# Columns and labels:
# EpiVaginal tissues = assay: macrophage infiltration in treated EpiVaginal tissues (barrier function), four hours in the presence of TNF-α; format: cell-based; conditions: vs. 28% into the untreated tissue; macrophages cultured with the tissue for four hours in the presence of TNF-α
# Text: FIG. 1 is a graph showing macrophage infiltration in hormone (estrogen) and L759,633-treated EpiVaginal tissues. L759,633 had the most striking effect on macrophage infiltration: only 6% of cells infiltrated into the tissue past 90 μm (vs. 28% into the untreated tissue, p<0.006 ANOVA). […] U=untreated control; E=estradiol; P=progesterone; and IMG=the cannabinoid L759,633.
# Many of the above-noted genes are differentially regulated by estradiol in menopausal tissue. […] With respect to the barrier function, only 6% of macrophages which had been cultured with the tissue for four hours in the presence of TNF-α were capable of infiltrating into the tissue past 90 um (vs. 28% into the untreated tissue, p<0.006 ANOVA). […] This would indicate that the increased gene expression of the proteins involved with cross-linking of the keratin fibers, filagrins and desmosomal cadherins are all contributing to the fortification of the vaginal mucosa which would prevent the infiltration of pathogens and prevent the loss of solutes and water from within the tissue.
# vaginal tissue construct = assay: microarray analysis of differential gene expression (Affymetrix Human Gene 1.0 ST arrays), tissues treated for seven days via culture medium; format: cell-based
# Text: The data from the Affymetrix Human Gene 1.0 ST arrays were normalized using the Robust Multiarray Average (RMA) algorithm and a Chip Definition File (CDF) that maps the probes on the array to unique Entrez Gene identifiers. The result is a matrix in which each column corresponds to a sample. The expression values are log 2-transformed by default.
# By using a fold change >1.5, an analysis of differentially expressed genes was done to identify those genes which were involved in the cornified envelope, keratinocyte differentiation, cell differentiation, epidermis development, epithelial cell differentiation, junctional proteins and signaling, immune response and innate immune response.
# [1] = target: endocannabinoid receptor type 2 (CB2) (Homo sapiens, UniProt P34972); conditions: cited from earlier work
# [2] = down-regulated by this fold, given without sign
# endocannabinoid receptor type 2 (CB2), sequence (P34972 whole entry, species assumed): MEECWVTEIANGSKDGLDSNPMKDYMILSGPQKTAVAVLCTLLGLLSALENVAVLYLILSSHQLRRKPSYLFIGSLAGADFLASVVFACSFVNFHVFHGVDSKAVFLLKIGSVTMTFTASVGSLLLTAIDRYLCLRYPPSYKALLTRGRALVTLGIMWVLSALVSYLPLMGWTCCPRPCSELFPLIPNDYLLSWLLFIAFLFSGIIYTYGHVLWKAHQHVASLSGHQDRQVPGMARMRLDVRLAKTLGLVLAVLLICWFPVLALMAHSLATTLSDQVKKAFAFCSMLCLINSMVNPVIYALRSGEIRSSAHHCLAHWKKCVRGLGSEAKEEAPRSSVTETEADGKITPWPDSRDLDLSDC
compound,measurement,setting,value
"CCCCCCC(C)(C)c1cc(OC)c2c(c1)OC(C)(C)[C@@H]1CC=C(C)C[C@@H]21 [L759,633]",macrophages infiltrated into the tissue past 90 μm,EpiVaginal tissues,6%
same,SPRR2D Fold Change,vaginal tissue construct,3.431 fold
same,WFDC12 Fold Change,vaginal tissue construct,7.884 fold
same,CFB down-regulation,vaginal tissue construct; [2],2.285 fold
same,CFH down-regulation,vaginal tissue construct; [2],1.769 fold
same,AGR2 Fold Change,vaginal tissue construct; gene Anterior gradient homolog 2 (Xenopus laevis),−3.1 fold
same,CXCL8 Expr Fold Change,vaginal tissue construct; gene C-X-C motif chemokine ligand 8,−2.298 fold
same,CXCL17 Expr Fold Change,vaginal tissue construct; gene C-X-C motif chemokine ligand 17,−2.038 fold
same,CXCR2 Expr Fold Change,vaginal tissue construct; gene C-X-C motif chemokine receptor 2,1.871 fold
same,CD14 Expr Fold Change,vaginal tissue construct; gene CD14 molecule,−2.154 fold
same,CD74 Expr Fold Change,vaginal tissue construct; gene CD74 molecule,−2.103 fold
same,CD151 Expr Fold Change,vaginal tissue construct; gene CD151 molecule (Raph blood group),−1.664 fold
same,CD244 Expr Fold Change,vaginal tissue construct; gene CD244 molecule,2.837 fold
same,CDSN Fold Change,vaginal tissue construct; gene Corneodesmosin,9.465 fold
same,CCL28 Expr Fold Change,vaginal tissue construct; gene C−C motif chemokine ligand 28,−2.504 fold
same,FYB1 Expr Fold Change,vaginal tissue construct; gene FYN binding protein 1,−2.604 fold
same,IFNE Fold Change,vaginal tissue construct; gene Interferon Epsilon,5.496 fold
same,IL19 Fold Change,vaginal tissue construct; gene Interleukin 19,−3.5 fold
same,NLRP10 Fold Change,vaginal tissue construct; gene NLR family pyrin domain containing 10,15.93 fold
same,RNAse7 Fold Change,vaginal tissue construct; gene RNAse family,8.158 fold
same,TIAM1 Expr Fold Change,vaginal tissue construct; gene T cell lymphoma invasion and metastasis 1,2.249 fold
same,TNFAIP8 Expr Fold Change,vaginal tissue construct; gene TNF alpha induced protein 8,−1.601 fold
same,TNFRSF10C Expr Fold Change,vaginal tissue construct; gene TNF receptor superfamily member 10c,−2.458 fold
same,TNFRSF11B Expr Fold Change,vaginal tissue construct; gene TNF receptor superfamily member 11b,−2.012 fold
same,TSPAN1 Fold Change,vaginal tissue construct; gene Tetraspanin 1,−2.3 fold
same,TGM1 Fold Change,vaginal tissue construct; gene Transglutaminase 1,1.966 fold
same,TGM3 Fold Change,vaginal tissue construct; gene Transglutaminase 3,30.074 fold and 30.1 fold
same,TGM5 Fold Change,vaginal tissue construct; gene Transglutaminase 5,2.237 fold
same,TRIM31 Fold Change,vaginal tissue construct; gene Tripartite motif-containing 31,−5.9 fold
same,VTCN1 Expr Fold Change,vaginal tissue construct; gene V-set domain containing T cell activation inhibitor 1,−4.666 fold
same,WFDC2 Fold Change,vaginal tissue construct; gene WAP four-disulfide core domain 2,−2.8 fold
same,WFDC5 Fold Change,vaginal tissue construct; gene WAP four-disulfide core domain 5,3.139 fold
same,ALOX12B Fold Change,"vaginal tissue construct; gene arachidonate 12-lipoxygenase, 12R type",6.6 fold and 6.683 fold
same,ALOX12 Fold Change,vaginal tissue construct; gene arachidonate 12-lipoygenase,1.5 fold
same,ALOXE3 Fold Change,vaginal tissue construct; gene arachidonate lipoxygenase 3,3.659 fold
same,ASS1 Fold Change,vaginal tissue construct; gene arginosuccinate synthetase 1,−2.8 fold
same,CLDN17 Fold Change,vaginal tissue construct; gene claudin 17,11 fold
same,CCDC59 Expr Fold Change,vaginal tissue construct; gene coiled-coil domain containing 59,−1.795 fold
same,CSF2RB Expr Fold Change,vaginal tissue construct; gene colony stimulating factor 2 receptor beta common subunit,2.79 fold
same,CFH Expr Fold Change,vaginal tissue construct; gene complement factor H,−1.769 fold
same,CNFN Fold Change,vaginal tissue construct; gene cornifelin,1.62 fold
same,CRCT1 Fold Change,vaginal tissue construct; gene cysteine-rich C-terminal 1,2.6 fold
same,DMKN Fold Change,vaginal tissue construct; gene dermokine,2.362 fold
same,DCS3 Fold Change,vaginal tissue construct; gene descmocollin 3,1.9 fold
same,DSC1 Fold Change,vaginal tissue construct; gene desmocollin 1,10.494 fold
same,DSC2 Fold Change,vaginal tissue construct; gene desmocollin 2,1.7 fold
same,DSG1 Fold Change,vaginal tissue construct; gene desmoglein 1,9.191 fold and 8.7 fold
same,FLG Fold Change,vaginal tissue construct; gene filaggrin,4.549 fold
same,FLG2 Fold Change,vaginal tissue construct; gene filaggrin family member 2,10.449 fold
same,GYS2 Fold Change,vaginal tissue construct; gene glycogen synthase 2 (liver),2.9 fold
same,KPRP Fold Change,vaginal tissue construct; gene human keratinocyte proline rich protein,25.318 fold and 25.3 fold
same,IFIT5 Expr Fold Change,vaginal tissue construct; gene interferon induced protein with tetratricopeptide repeats 5,−2.183 fold
same,IFIH1 Expr Fold Change,vaginal tissue construct; gene interferon induced with helicase C domain 1,−1.922 fold
same,IRF1 Expr Fold Change,vaginal tissue construct; gene interferon regulatory factor 1,−3.253 fold
same,IRF9 Expr Fold Change,vaginal tissue construct; gene interferon regulatory factor 9,−1.535 fold
same,IL1RL2 Expr Fold Change,vaginal tissue construct; gene interleukin 1 receptor like 2,2.508 fold
same,IL7R Expr Fold Change,vaginal tissue construct; gene interleukin 7 receptor,−2.852 fold
same,IL18BP Expr Fold Change,vaginal tissue construct; gene interleukin 18 binding protein,1.532 fold
same,IL23A Expr Fold Change,vaginal tissue construct; gene interleukin 23 subunit alpha,2.677 fold
same,IL33 Expr Fold Change,vaginal tissue construct; gene interleukin 33,−3.109 fold
same,IL36A Expr Fold Change,vaginal tissue construct; gene interleukin 36 alpha,4.185 fold
same,IL36RN Expr Fold Change,vaginal tissue construct; gene interleukin 36 receptor antagonist,4.668 fold
same,KLK6 Fold Change,vaginal tissue construct; gene kallikrein related peptidase 6,4.651 fold
same,KLK8 Fold Change,vaginal tissue construct; gene kallikrein related peptidase 8,1.842 fold
same,KLK10 Fold Change,vaginal tissue construct; gene kallikrein related peptidase 10,2.554 fold
same,KLK12 Fold Change,vaginal tissue construct; gene kallikrein related peptidase 12,3.933 fold
same,KLK13 Fold Change,vaginal tissue construct; gene kallikrein related peptidase 13,3.957 fold
same,KRT1 Fold Change,vaginal tissue construct; gene keratin 1,10.739 fold and 10.5 fold
same,KRT2 Fold Change,vaginal tissue construct; gene keratin 2,1.801 fold
same,KRT20 Fold Change,vaginal tissue construct; gene keratin 20,−3.42 fold
same,KRT23 Fold Change,vaginal tissue construct; gene keratin 23,1.912 fold
same,KRT24 Fold Change,vaginal tissue construct; gene keratin 24,1.619 fold
same,KRTDAP Fold Change,vaginal tissue construct; gene keratinocyte differentiation associated protein,15.751 fold and 15.7 fold
same,LCE1A Fold Change,vaginal tissue construct; gene late cornified envelope 1A,1.884 fold
same,LCE1C Fold Change,vaginal tissue construct; gene late cornified envelope 1C,4.063 fold
same,LCE1F Fold Change,vaginal tissue construct; gene late cornified envelope 1F,1.593 fold
same,LCE2A Fold Change,vaginal tissue construct; gene late cornified envelope 2A,6.392 fold
same,LCE2B Fold Change,vaginal tissue construct; gene late cornified envelope 2B,11.182 fold
same,LCE2C/LCE2D Fold Change,vaginal tissue construct; gene late cornified envelope 2D,24.247 fold
same,LCE3D Fold Change,vaginal tissue construct; gene late cornified envelope 3D,15.6 fold
same,LCE3E Fold Change,vaginal tissue construct; gene late cornified envelope 3E,16 fold
same,LCE5A Fold Change,vaginal tissue construct; gene late cornified envelope 5A,1.63 fold
same,LIPM Fold Change,vaginal tissue construct; gene lipase family member M,11.426 fold
same,LIPN Fold Change,vaginal tissue construct; gene lipase family member N,7.346 fold
same,LIPN1 Fold Change,vaginal tissue construct; gene lipin 1,3.775 fold
same,LOR Fold Change,vaginal tissue construct; gene loricrin,7.932 fold
same,LY6G6C Expr Fold Change,vaginal tissue construct; gene lymphocyte antigen 6 family member G6C,6.538 fold
same,HLA-C Expr Fold Change,"vaginal tissue construct; gene major histocompatibility complex, class C",−1.691 fold
same,HLA-B Expr Fold Change,"vaginal tissue construct; gene major histocompatibility complex, class I, B",−2.168 fold
same,HLA-DMB Expr Fold Change,"vaginal tissue construct; gene major histocompatibility complex, class II, DM beta",−1.591 fold
same,HLA-DPA1 Expr Fold Change,"vaginal tissue construct; gene major histocompatibility complex, class II, DP alpha 1",−1.7 fold
same,HLA-DRA Expr Fold Change,"vaginal tissue construct; gene major histocompatibility complex, class II, DR alpha",−2.792 fold
same,HLA-DRB6 Expr Fold Change,"vaginal tissue construct; gene major histocompatibility complex, class II, DR beta 6 (pseudogene)",−2.7 fold
same,ME1 Fold Change,"vaginal tissue construct; gene malic enzyme 1, NADP(+)-dependent cytosolic",2.9 fold
same,MUCL1 Fold Change,vaginal tissue construct; gene mucin like 1,~2 fold and 1.964 fold
same,NCR3LG1 Expr Fold Change,vaginal tissue construct; gene natural killer cell cytotoxicity receptor 3 ligand 1,2.482 fold
same,NFAT5 Expr Fold Change,vaginal tissue construct; gene nuclear factor of activated T cells 5,2.265 fold
same,OLFM4 Expr Fold Change,vaginal tissue construct; gene olfactomedin 4,−6.772 fold
same,PNLIPRP3 Fold Change,vaginal tissue construct; gene pancreatic lipase-related protein 3,1.6 fold
same,PLA2G2F Fold Change,vaginal tissue construct; gene phospholipase A2 group IIF,2.054 fold
same,PLA2G3 Fold Change,vaginal tissue construct; gene phospholipase A2 group III,2.218 fold
same,PLA2G4D Fold Change,vaginal tissue construct; gene phospholipase A2 group IVD,3.526 fold
same,PLA2G4E Fold Change,vaginal tissue construct; gene phospholipase A2 group IVE,3.36 fold
same,PLA2G10 Fold Change,vaginal tissue construct; gene phospholipase A2 group X,−3.027 fold
same,PLAC8 Fold Change,vaginal tissue construct; gene placenta-specific 8,−3.3 fold
same,PIGR Fold Change,vaginal tissue construct; gene polymeric immunoglobulin receptor,−2.4 fold
same,PDCD1LG2 Expr Fold Change,vaginal tissue construct; gene programmed cell death 1 ligand 2,−1.74 fold
same,RPS15A Expr Fold Change,vaginal tissue construct; gene ribosomal protein S15a,−1.78 fold
same,SERPINB12 Fold Change,vaginal tissue construct; gene serpin family B member 12,5.202 fold and 5.1 fold
same,STAT4 Expr Fold Change,vaginal tissue construct; gene signal transducer and activator of transcription 4,−2.518 fold
same,SPRR2G Fold Change,vaginal tissue construct; gene small proline rich protein 2G,10.387 fold
same,SPRR4 Fold Change,vaginal tissue construct; gene small proline rich protein 4,2.619 fold
same,SBSN Fold Change,vaginal tissue construct; gene suprabasin,4.36 fold and 4.3 fold
same,TLR3 Expr Fold Change,vaginal tissue construct; gene toll like receptor 3,−3.274 fold
same,TRPV3 Fold Change,vaginal tissue construct; gene transient receptor potential cation channel subfamily V member 3,2.8 fold and 2.804 fold
same,UBA7 Expr Fold Change,vaginal tissue construct; gene ubiquitin like modifier activating enzyme 7,−2.031 fold
same,VEGFA Fold Change,vaginal tissue construct; gene vascular endothelial growth factor A,2.0 fold and 1.885 fold
same,mir-23 Expr Fold Change,vaginal tissue construct; microRNA 23a,2.823 fold
same,mir-224 Expr Fold Change,vaginal tissue construct; microRNA 224,6.266 fold
same,MMP10 expression,vaginal tissue construct; result in words,downregulated
same,agonist type by receptor internalization,[1],partial agonist
